Values quoted from earlier work, collected in patent publication US20140148399A1, “Compositions and methods for treating or ameliorating obesity or for reducing diabetic hypercholesterolemia” (UNIVERSITY OF TSUKUBA, priority 2012, published 2014).

Test system: 3T3-L1 cells

COc1cc(-c2oc3cc(O)cc(O)c3c(=O)c2O)ccc1O [Isorhamnetin]
adiponectin expression and secretion: reduces
C/EBP-α and PPAR-γ mRNA levels (3T3-L1 adipocyte differentiation): reducing
adipogenesis in 3T3-L1 cells (by inhibiting 3T3-L1 adipocyte differentiation): represses adipogenesis
